Experiments:
Protein kinase C (PKC) = assay: Inhibition of PKC (unknown origin); assay type: protein assay, Homo sapiens
[1] = target: cAMP-dependent protein kinase (PKA) (Homo sapiens, UniProt P22694+P17612+P22612); assay: Inhibition of PKA (unknown origin); assay type: protein assay
[2] = target: Rho-associated protein kinase 1 (Homo sapiens, UniProt Q13464); assay: Inhibition of ROCK1 (unknown origin)
[3] = target: Rho-associated protein kinase 2 (Homo sapiens, UniProt O75116); assay: Inhibition of ROCK2 (unknown origin)
[4] = target: Tyrosine-protein kinase Fyn (Homo sapiens, UniProt P06241); assay: Inhibition of FYN (unknown origin)
[5] = target: Mitogen-activated protein kinase 1 (Homo sapiens, UniProt P28482); assay: Inhibition of ERK2 (unknown origin)
[6] = target: Tyrosine-protein kinase Lck (Homo sapiens, UniProt P06239); assay: Inhibition of LCK (unknown origin)
[7] = target: Dual specificity protein kinase CLK2 (Homo sapiens, UniProt P49760); assay: Inhibition of CLK2 (unknown origin)
[8] = target: Dual specificity protein kinase CLK3 (Homo sapiens, UniProt P49761); assay: Inhibition of CLK3 (unknown origin)
[9] = target: Tyrosine-protein kinase Lyn (Homo sapiens, UniProt P07948); assay: Inhibition of LYN (unknown origin)
[10] = target: Dual specificity protein kinase CLK4 (Homo sapiens, UniProt Q9HAZ1); assay: Inhibition of CLK4 (unknown origin)
[11] = target: Cyclin-dependent kinase 2 (Homo sapiens, UniProt P24941); assay: Inhibition of CDK2 (unknown origin)
[12] = target: GABA-A receptor; anion channel; assay: Displacement of [3H]flunitrazepam from GABAA (unknown origin ) receptor by radioligand binding assay; assay type: protein-complex assay, Homo sapiens
[13] = target: 5-hydroxytryptamine receptor 1B (Homo sapiens, UniProt P28222); assay: Displacement of […] from human 5-HT1B expressed in human HEK cells assessed as inhibition constant by FLIPR assay; assay type: cell-based
[14] = target: 5-hydroxytryptamine receptor 6 (Homo sapiens, UniProt P50406); assay: Binding affinity to 5-HT6R (unknown origin) assessed as inhibition constant
[15] = target: 5-hydroxytryptamine receptor 1D (Homo sapiens, UniProt P28221); assay: Binding affinity to 5-HT1DR (unknown origin) assessed as inhibition constant
[16] = target: 5-hydroxytryptamine receptor 2A (Homo sapiens, UniProt P28223); assay: Displacement of [3H]-LSD from human 5-HT2A expressed in human HEK cells assessed as inhibition constant by FLIPR assay; assay type: cell-based
[17] = target: T1, 5-hydroxytryptamine receptor 2C (Homo sapiens, UniProt P28335); assay: Displacement of [3H]-LSD from human 5-HT2C expressed in human HEK cells assessed as inhibition constant by FLIPR assay; assay type: cell-based
T1 sequence (P28335 whole entry): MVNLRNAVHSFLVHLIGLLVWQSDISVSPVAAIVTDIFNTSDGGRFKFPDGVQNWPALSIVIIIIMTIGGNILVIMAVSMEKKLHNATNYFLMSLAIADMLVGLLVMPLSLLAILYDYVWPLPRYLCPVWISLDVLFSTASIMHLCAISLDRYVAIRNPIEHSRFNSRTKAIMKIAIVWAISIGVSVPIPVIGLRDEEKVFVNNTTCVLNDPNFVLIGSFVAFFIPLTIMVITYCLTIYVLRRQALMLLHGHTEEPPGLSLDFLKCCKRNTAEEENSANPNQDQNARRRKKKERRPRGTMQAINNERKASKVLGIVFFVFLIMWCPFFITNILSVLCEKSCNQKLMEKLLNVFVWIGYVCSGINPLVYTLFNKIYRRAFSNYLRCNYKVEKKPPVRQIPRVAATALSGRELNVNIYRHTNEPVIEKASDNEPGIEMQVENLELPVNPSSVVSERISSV

[18] = target: 5-hydroxytryptamine receptor 7 (Homo sapiens, UniProt P34969); assay: Displacement of […] from human 5-HT7 expressed in human HEK cells assessed as inhibition constant by FLIPR assay; assay type: cell-based
[19] = target: T2, 5-hydroxytryptamine receptor 3A (Homo sapiens, UniProt P46098); assay: Binding affinity to 5-HT3R (unknown origin) assessed as inhibition constant
T2 sequence (P46098 whole entry): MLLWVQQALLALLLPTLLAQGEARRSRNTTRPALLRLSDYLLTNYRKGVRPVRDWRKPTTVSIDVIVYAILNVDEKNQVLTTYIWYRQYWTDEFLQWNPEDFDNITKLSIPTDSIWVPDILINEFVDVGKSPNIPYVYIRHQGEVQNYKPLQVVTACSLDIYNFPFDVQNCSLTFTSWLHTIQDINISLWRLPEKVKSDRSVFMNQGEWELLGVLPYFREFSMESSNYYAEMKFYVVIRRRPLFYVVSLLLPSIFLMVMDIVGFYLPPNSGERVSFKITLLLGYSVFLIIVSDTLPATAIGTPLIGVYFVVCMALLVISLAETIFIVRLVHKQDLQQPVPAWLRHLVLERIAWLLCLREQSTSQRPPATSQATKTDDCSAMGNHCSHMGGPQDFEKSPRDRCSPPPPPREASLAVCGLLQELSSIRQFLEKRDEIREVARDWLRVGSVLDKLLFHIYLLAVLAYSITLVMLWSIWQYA

[20] = target: 5-hydroxytryptamine receptor 5A (Homo sapiens, UniProt P47898); assay: Binding affinity to 5-HT5AR (unknown origin) assessed as inhibition constant
[21] = target: T3, Amine oxidase [flavin-containing] A (Homo sapiens, UniProt P21397); assay: Inhibition of MAO-A (unknown origin)
T3 sequence (P21397 whole entry): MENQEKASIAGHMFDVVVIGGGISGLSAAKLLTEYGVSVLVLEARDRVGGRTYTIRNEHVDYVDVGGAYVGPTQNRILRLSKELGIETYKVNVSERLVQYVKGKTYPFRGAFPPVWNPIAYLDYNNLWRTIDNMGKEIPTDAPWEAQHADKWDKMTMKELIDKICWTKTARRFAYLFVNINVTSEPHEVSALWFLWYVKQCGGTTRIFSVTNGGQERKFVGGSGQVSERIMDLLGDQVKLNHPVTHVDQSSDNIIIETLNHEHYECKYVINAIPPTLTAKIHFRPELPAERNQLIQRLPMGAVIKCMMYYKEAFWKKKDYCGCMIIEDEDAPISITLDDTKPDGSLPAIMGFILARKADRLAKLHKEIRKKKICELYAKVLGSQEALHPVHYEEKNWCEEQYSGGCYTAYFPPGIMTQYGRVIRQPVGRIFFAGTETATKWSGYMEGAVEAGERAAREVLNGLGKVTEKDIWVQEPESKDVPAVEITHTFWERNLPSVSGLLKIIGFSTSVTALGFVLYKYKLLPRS

[22] = target: 5-hydroxytryptamine receptor 1A (Homo sapiens, UniProt P08908); assay: Displacement of […] from human 5-HT1A expressed in human HEK cells assessed as inhibition constant by FLIPR assay; assay type: cell-based
[23] = target: Dual specificity tyrosine-phosphorylation-regulated kinase 1A (Homo sapiens, UniProt Q13627); assay: Inhibition of DYRK1A (unknown origin)
[24] = target: T4, Gamma-aminobutyric acid receptor subunit alpha-6 (Homo sapiens, UniProt Q16445); assay: Inhibition of human recombinant GABAA alpha6 receptor
[25] = target: T5, Gamma-aminobutyric acid receptor subunit alpha-5 (Homo sapiens, UniProt P31644); assay: Binding affinity to human recombinant GABAA alpha5 receptor assessed as inhibition constant incubated for 1 hrs by liquid scintillation counting analysis
T5 sequence (P31644 whole entry): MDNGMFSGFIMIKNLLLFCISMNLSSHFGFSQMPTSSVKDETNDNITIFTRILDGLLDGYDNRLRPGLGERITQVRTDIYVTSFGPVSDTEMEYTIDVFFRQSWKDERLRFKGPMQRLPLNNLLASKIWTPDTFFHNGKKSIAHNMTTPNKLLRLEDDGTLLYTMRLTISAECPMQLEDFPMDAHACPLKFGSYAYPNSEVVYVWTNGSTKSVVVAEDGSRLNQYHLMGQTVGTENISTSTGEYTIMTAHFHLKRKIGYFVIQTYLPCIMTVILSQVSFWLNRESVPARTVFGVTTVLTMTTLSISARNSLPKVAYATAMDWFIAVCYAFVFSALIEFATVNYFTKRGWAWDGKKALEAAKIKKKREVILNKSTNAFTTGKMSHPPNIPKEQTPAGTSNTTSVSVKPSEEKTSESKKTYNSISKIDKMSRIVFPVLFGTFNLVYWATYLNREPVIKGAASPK

[26] = target: T6, Gamma-aminobutyric acid receptor subunit alpha-2 (Homo sapiens, UniProt P47869); assay: Inhibition of human recombinant GABAA alpha2 receptor
T6 sequence (P47869 whole entry): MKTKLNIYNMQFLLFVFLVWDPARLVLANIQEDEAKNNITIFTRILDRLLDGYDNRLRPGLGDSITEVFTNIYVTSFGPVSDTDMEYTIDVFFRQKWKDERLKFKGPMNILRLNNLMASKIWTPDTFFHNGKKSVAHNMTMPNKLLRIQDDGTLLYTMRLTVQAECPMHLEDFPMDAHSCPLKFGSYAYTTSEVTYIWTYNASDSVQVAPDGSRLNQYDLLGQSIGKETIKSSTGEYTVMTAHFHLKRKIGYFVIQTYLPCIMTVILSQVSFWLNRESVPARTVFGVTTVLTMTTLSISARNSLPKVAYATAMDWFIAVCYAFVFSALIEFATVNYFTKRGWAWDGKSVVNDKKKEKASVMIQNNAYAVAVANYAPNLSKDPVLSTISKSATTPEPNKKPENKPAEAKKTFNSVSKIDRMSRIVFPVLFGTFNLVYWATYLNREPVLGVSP

[27] = target: T7, Gamma-aminobutyric acid receptor subunit alpha-1 (Homo sapiens, UniProt P14867); assay: Binding affinity to human recombinant GABAA alpha1 receptor assessed as inhibition constant incubated for 1 hrs by liquid scintillation counting analysis
T7 sequence (P14867 whole entry): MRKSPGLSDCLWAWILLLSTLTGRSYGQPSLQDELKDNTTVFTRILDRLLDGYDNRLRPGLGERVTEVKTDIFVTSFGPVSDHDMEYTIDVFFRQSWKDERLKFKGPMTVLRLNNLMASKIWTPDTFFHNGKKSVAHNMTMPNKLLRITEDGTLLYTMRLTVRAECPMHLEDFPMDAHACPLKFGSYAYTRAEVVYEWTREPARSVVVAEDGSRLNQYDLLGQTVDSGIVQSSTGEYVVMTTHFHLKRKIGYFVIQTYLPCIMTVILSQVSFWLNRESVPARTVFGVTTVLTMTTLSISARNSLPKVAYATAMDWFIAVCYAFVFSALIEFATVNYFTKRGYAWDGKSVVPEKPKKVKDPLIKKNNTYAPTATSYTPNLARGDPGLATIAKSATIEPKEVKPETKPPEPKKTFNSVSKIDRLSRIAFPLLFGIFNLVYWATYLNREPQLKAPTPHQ

[28] = target: T8, Gamma-aminobutyric acid receptor subunit alpha-3 (Homo sapiens, UniProt P34903); assay: Inhibition of human recombinant GABAA alpha3 receptor
T8 sequence (P34903 whole entry): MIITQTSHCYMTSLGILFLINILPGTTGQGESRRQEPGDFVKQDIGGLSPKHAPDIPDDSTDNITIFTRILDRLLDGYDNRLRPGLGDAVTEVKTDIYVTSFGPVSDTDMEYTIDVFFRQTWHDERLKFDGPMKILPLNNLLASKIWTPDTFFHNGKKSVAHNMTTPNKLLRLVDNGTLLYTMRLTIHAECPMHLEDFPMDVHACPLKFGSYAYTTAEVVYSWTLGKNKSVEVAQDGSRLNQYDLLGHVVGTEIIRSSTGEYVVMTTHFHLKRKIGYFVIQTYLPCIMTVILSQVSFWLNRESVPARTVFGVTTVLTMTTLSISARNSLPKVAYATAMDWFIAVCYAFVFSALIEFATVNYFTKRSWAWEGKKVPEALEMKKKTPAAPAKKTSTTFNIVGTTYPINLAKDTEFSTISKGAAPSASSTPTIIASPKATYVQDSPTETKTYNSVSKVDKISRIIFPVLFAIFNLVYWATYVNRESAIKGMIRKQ

[29] = target: T6, Gamma-aminobutyric acid receptor subunit alpha-2; assay: Binding affinity to human recombinant GABAA alpha2 receptor assessed as inhibition constant incubated for 1 hrs by liquid scintillation counting analysis
[30] = target: T9, Gamma-aminobutyric acid receptor subunit alpha-4 (Homo sapiens, UniProt P48169); assay: Binding affinity to human recombinant GABAA alpha4 receptor assessed as inhibition constant incubated for 1 hrs by liquid scintillation counting analysis
[31] = target: T5, Gamma-aminobutyric acid receptor subunit alpha-5; assay: Inhibition of human recombinant GABAA alpha5 receptor
[32] = target: T4, Gamma-aminobutyric acid receptor subunit alpha-6; assay: Binding affinity to human recombinant GABAA alpha6 receptor assessed as inhibition constant incubated for 1 hrs by liquid scintillation counting analysis
[33] = target: T8, Gamma-aminobutyric acid receptor subunit alpha-3; assay: Binding affinity to human recombinant GABAA alpha3 receptor assessed as inhibition constant incubated for 1 hrs by liquid scintillation counting analysis
[34] = target: T7, Gamma-aminobutyric acid receptor subunit alpha-1; assay: Inhibition of human recombinant GABAA alpha1 receptor
[35] = target: T9, Gamma-aminobutyric acid receptor subunit alpha-4; assay: Inhibition of human recombinant GABAA alpha4 receptor
[36] = target: Dual specificity protein kinase CLK1 (Homo sapiens, UniProt P49759); assay: Inhibition of CLK1 (unknown origin)
[37] = target: Glycogen synthase kinase-3 beta (Homo sapiens, UniProt P49841); assay: Inhibition of GSK-3beta (unknown origin)

T4 sequence (Q16445 whole entry): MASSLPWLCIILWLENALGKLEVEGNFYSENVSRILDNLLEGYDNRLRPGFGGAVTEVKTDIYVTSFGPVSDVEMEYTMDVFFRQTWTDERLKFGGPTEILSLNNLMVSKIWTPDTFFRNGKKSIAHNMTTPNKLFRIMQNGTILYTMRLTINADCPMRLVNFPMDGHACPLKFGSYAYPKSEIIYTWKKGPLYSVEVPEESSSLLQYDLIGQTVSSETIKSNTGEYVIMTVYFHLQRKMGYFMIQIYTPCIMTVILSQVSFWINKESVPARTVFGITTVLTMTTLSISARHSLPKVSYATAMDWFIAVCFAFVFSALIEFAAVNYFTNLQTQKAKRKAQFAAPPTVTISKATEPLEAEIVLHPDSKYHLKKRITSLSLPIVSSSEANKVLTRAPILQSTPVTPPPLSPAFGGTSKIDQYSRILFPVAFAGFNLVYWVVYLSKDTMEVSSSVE
T9 sequence (P48169 whole entry): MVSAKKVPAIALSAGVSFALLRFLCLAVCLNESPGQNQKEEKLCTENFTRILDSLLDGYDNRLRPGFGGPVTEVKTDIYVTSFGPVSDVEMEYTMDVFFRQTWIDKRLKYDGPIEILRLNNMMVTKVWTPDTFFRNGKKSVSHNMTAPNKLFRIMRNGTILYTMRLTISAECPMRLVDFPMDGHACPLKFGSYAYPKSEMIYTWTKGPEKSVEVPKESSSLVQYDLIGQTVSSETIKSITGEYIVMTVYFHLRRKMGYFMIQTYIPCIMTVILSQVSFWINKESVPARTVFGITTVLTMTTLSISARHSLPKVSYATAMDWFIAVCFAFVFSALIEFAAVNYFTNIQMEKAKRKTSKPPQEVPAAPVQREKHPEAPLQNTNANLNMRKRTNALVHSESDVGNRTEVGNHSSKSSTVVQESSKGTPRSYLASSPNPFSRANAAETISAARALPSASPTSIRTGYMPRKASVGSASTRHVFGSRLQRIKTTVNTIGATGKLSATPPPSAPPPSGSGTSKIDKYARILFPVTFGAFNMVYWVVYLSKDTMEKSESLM
5-hydroxytryptamine receptor 6, sequence (P50406 whole entry): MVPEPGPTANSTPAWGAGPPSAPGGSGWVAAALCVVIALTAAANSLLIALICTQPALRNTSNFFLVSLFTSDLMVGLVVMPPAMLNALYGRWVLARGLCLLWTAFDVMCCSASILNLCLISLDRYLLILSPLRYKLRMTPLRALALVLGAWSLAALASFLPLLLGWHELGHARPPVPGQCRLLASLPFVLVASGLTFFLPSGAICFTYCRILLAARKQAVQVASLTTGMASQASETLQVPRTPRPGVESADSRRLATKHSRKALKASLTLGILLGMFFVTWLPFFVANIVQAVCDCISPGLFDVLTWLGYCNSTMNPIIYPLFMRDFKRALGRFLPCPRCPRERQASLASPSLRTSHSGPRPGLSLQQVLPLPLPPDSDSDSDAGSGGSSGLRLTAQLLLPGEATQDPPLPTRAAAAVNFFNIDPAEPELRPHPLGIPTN
Dual specificity protein kinase CLK3, sequence (P49761 whole entry): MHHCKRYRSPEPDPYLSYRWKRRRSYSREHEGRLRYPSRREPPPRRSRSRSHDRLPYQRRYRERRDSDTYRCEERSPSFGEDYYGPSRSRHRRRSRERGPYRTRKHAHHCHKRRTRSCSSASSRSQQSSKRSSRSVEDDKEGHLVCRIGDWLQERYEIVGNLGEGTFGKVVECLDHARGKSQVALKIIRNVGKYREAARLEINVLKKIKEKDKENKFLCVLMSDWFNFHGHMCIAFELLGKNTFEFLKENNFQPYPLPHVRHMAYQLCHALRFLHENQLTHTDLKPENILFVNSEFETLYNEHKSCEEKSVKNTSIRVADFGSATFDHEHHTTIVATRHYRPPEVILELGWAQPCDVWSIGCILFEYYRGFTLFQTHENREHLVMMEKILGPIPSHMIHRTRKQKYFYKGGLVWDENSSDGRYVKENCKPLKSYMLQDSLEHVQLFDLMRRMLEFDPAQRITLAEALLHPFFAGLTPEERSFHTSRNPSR
5-hydroxytryptamine receptor 5A, sequence (P47898 whole entry): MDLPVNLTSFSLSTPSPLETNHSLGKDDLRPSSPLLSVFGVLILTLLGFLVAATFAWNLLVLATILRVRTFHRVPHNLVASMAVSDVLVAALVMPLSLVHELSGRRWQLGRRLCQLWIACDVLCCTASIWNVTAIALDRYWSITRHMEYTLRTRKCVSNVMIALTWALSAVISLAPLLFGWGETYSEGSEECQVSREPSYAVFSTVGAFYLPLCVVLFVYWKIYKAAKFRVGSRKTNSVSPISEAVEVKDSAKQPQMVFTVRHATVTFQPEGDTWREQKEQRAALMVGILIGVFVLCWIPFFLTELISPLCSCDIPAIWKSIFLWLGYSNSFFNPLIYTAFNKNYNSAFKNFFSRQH
Rho-associated protein kinase 2, sequence (O75116 whole entry): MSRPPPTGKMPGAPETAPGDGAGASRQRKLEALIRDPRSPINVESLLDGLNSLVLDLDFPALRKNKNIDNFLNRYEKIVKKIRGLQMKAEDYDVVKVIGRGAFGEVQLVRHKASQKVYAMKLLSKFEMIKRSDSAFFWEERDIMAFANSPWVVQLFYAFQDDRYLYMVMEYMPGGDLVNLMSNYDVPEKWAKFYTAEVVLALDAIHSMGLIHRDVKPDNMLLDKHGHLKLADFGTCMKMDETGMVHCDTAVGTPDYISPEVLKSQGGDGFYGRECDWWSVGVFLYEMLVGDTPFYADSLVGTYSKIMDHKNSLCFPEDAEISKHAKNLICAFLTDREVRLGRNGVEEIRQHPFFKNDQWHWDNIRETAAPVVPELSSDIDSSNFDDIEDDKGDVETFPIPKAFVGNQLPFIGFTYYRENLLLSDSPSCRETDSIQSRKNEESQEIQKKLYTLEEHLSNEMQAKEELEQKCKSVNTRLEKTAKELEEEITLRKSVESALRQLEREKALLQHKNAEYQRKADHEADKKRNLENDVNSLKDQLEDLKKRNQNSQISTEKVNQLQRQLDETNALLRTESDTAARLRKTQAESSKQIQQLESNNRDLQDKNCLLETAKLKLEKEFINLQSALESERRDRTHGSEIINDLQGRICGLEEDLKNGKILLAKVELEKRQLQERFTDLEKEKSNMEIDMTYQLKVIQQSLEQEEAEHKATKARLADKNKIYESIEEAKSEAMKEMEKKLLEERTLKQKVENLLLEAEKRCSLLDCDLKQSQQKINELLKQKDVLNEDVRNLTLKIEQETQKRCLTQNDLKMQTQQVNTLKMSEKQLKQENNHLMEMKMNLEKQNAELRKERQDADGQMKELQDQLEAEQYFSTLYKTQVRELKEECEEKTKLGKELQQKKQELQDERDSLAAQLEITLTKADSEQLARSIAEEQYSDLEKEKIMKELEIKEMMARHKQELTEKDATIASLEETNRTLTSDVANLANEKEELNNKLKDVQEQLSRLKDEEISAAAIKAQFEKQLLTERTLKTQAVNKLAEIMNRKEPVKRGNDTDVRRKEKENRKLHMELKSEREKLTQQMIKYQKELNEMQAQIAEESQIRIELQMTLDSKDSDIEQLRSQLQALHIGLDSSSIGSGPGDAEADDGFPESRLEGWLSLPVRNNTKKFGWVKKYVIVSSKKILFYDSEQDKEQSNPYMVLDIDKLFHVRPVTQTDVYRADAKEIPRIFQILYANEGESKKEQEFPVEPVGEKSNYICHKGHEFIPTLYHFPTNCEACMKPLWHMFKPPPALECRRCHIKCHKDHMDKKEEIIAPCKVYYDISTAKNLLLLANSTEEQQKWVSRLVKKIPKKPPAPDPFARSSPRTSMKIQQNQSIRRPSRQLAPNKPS
Tyrosine-protein kinase Lyn, sequence (P07948 whole entry): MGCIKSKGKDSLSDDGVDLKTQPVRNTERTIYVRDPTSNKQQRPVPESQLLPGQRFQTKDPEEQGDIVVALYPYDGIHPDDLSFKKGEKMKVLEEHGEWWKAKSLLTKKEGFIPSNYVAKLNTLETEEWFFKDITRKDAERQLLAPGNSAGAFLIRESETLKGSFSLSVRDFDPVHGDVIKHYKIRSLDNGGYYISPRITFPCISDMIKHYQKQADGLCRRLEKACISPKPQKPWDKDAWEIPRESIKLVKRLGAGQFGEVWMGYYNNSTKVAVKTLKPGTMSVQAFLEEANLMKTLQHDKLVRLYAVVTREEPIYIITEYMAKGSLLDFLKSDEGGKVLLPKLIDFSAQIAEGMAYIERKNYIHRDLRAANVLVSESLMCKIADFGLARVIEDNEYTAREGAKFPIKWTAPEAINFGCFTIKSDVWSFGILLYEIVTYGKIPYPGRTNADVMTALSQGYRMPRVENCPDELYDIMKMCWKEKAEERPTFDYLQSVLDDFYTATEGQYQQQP
Dual specificity protein kinase CLK2, sequence (P49760 whole entry): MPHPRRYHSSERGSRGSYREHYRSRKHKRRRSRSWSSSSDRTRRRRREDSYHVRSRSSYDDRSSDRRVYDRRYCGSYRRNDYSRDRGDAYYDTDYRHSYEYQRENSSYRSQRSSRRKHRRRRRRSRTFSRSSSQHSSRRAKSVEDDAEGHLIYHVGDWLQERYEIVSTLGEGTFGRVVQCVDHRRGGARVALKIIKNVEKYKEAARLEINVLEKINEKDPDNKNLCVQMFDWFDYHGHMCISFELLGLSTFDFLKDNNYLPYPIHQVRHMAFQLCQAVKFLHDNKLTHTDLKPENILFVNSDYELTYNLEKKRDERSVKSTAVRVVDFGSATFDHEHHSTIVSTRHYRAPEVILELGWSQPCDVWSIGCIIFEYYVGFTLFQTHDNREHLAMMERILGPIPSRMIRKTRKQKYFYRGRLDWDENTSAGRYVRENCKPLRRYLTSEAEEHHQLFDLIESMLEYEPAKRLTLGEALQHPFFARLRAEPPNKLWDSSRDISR

## COc1ccc2c(c1)[nH]c1c(C)nccc12 [HARMINE]
Protein kinase C (PKC)
  IC50: > 250 µM
[1]
  IC50: > 250 µM
[2]
  IC50: 1.5 µM
[3]
  IC50: > 40 µM
[4]
  IC50: > 250 µM
[5]
  IC50: > 30 µM
[6]
  IC50: > 250 µM
[7]
  IC50: 0.12 µM
[8]
  IC50: 3 µM
[9]
  IC50: > 250 µM
[10]
  IC50: 0.024 µM
[11]
  IC50: 33 µM
[12]
  IC50: > 100 µM

## COc1ccc2c3c([nH]c2c1)C(C)=NCC3 [HARMALINE]
[13]
  Ki: > 10 µM
[14]
  Ki: 1.5 µM
[15]
  Ki: > 10 µM
[16]
  Ki: 5 µM
[17]
  Ki: 9.4 µM
[18]
  Ki: 5.5 µM
[19]
  Ki: > 10 µM
[20]
  Ki: > 10 µM
[21]
  IC50: 0.0025 µM
[22]
  Ki: > 10 µM
[23]
  IC50: 4.6 µM

## CC(OC(=O)c1cc2c(cn1)[nH]c1ccccc12)c1ccccc1 (centres undefined)
[24]
  IC50: > 1 µM
[25]
  Ki: 1 µM
[26]
  IC50: > 1 µM
[27]
  Ki: 0.034 µM
[28]
  IC50: > 1 µM
[29]
  Ki: 1 µM
[30]
  Ki: 1 µM
[31]
  IC50: > 1 µM
[32]
  Ki: 3 µM
[33]
  Ki: 1 µM
[34]
  IC50: 0.034 µM
[35]
  IC50: > 1 µM

## N#CCn1c2ccc(O)cc2c2c3c(n4cccc4c21)C(=O)NC3=O
[36]
  IC50: 0.26 µM
[37]
  IC50: 0.42 µM
[23]
  IC50: 0.2 µM
